# Data from PubChem BioAssay (NCI).
#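 Assay format: 96-well plates, 48-hour exposure. At the TGI there is no net growth.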
# System: ACHN renal
# Experiment: DTP human tumour cell line panel, 48 h
row,Compound,TGI
1,O=C1CC(=O)NC(=NN2C(=O)/C(=C/c3ccc(Cl)c(Cl)c3)N=C2c2ccccc2)N1,> 100 µM
2,CC1=NC(C)(COC(=O)C2(C)NC(C)(CO)CO2)COC1=O (stereo not given),> 100 µM
3,CC(=O)NC1C(Sc2ncn(C3OC(CO)C(O)C(O)C3NC(C)=O)n2)OC(CO)C(O)C1O (stereo not given),> 100 µM

# System: SK-MEL-5 melanoma
# Experiment: DTP human tumour cell line panel, 48 h
row,Compound,TGI
1,Cc1ccc(C(=O)NCc2ccccc2)cc1N=NN(C)C,> 100 µM
2,c1ccc2c3[nH]c(c2c1)=Nc1ccc(cc1)-c1nc2ccc(cc2o1)N=c1[nH]c(c2ccccc12)=Nc1ccc2nc(oc2c1)-c1ccc(cc1)N=3,29.4 µM
3,COc1cccc(CC(=O)N2CCN(CCCc3ccccc3)CC2)c1,77.1 µM
4,Cn1c(=S)c2[nH]c(SCCCc3ccccc3)nc2n(C)c1=O,33.5 µM
5,O=C1CC(=O)NC(=NN2C(=O)/C(=C/c3ccc(Cl)c(Cl)c3)N=C2c2ccccc2)N1,30.3 µM
6,CC1=NC(C)(COC(=O)C2(C)NC(C)(CO)CO2)COC1=O (stereo not given),> 100 µM
7,CC(=O)NC1C(Sc2ncn(C3OC(CO)C(O)C(O)C3NC(C)=O)n2)OC(CO)C(O)C1O (stereo not given),> 100 µM

# System: HOP-92 NSCLC
# Experiment: DTP human tumour cell line panel, 48 h
row,Compound,TGI
1,Cc1ccc(C(=O)NCc2ccccc2)cc1N=NN(C)C,> 100 µM
2,c1ccc2c3[nH]c(c2c1)=Nc1ccc(cc1)-c1nc2ccc(cc2o1)N=c1[nH]c(c2ccccc12)=Nc1ccc2nc(oc2c1)-c1ccc(cc1)N=3,> 100 µM
3,COc1cccc(CC(=O)N2CCN(CCCc3ccccc3)CC2)c1,> 100 µM
4,Cn1c(=S)c2[nH]c(SCCCc3ccccc3)nc2n(C)c1=O,> 100 µM
5,O=C1CC(=O)NC(=NN2C(=O)/C(=C/c3ccc(Cl)c(Cl)c3)N=C2c2ccccc2)N1,89.8 µM
6,CC1=NC(C)(COC(=O)C2(C)NC(C)(CO)CO2)COC1=O (stereo not given),> 100 µM
7,CC(=O)NC1C(Sc2ncn(C3OC(CO)C(O)C(O)C3NC(C)=O)n2)OC(CO)C(O)C1O (stereo not given),> 100 µM

# System: MOLT-4 leukemia
# Experiment: DTP human tumour cell line panel, 48 h
row,Compound,TGI
1,Cc1ccc(C(=O)NCc2ccccc2)cc1N=NN(C)C,> 100 µM
2,c1ccc2c3[nH]c(c2c1)=Nc1ccc(cc1)-c1nc2ccc(cc2o1)N=c1[nH]c(c2ccccc12)=Nc1ccc2nc(oc2c1)-c1ccc(cc1)N=3,> 100 µM
3,COc1cccc(CC(=O)N2CCN(CCCc3ccccc3)CC2)c1,> 100 µM
4,Cn1c(=S)c2[nH]c(SCCCc3ccccc3)nc2n(C)c1=O,> 100 µM
5,O=C1CC(=O)NC(=NN2C(=O)/C(=C/c3ccc(Cl)c(Cl)c3)N=C2c2ccccc2)N1,50.8 µM
6,CC1=NC(C)(COC(=O)C2(C)NC(C)(CO)CO2)COC1=O (stereo not given),> 100 µM
7,CC(=O)NC1C(Sc2ncn(C3OC(CO)C(O)C(O)C3NC(C)=O)n2)OC(CO)C(O)C1O (stereo not given),> 100 µM

# System: M19-MEL melanoma
# Experiment: DTP human tumour cell line panel, 48 h
row,Compound,TGI
1,Cc1ccc(C(=O)NCc2ccccc2)cc1N=NN(C)C,> 100 µM

# System: SK-MEL-28 melanoma
# Experiment: DTP human tumour cell line panel, 48 h
row,Compound,TGI
1,Cc1ccc(C(=O)NCc2ccccc2)cc1N=NN(C)C,> 100 µM
2,c1ccc2c3[nH]c(c2c1)=Nc1ccc(cc1)-c1nc2ccc(cc2o1)N=c1[nH]c(c2ccccc12)=Nc1ccc2nc(oc2c1)-c1ccc(cc1)N=3,> 100 µM
3,COc1cccc(CC(=O)N2CCN(CCCc3ccccc3)CC2)c1,> 100 µM
4,Cn1c(=S)c2[nH]c(SCCCc3ccccc3)nc2n(C)c1=O,> 100 µM
5,O=C1CC(=O)NC(=NN2C(=O)/C(=C/c3ccc(Cl)c(Cl)c3)N=C2c2ccccc2)N1,78 µM
6,CC1=NC(C)(COC(=O)C2(C)NC(C)(CO)CO2)COC1=O (stereo not given),> 100 µM
7,CC(=O)NC1C(Sc2ncn(C3OC(CO)C(O)C(O)C3NC(C)=O)n2)OC(CO)C(O)C1O (stereo not given),> 100 µM

# System: MCF7 breast
# Experiment: DTP human tumour cell line panel, 48 h
row,Compound,TGI
1,Cc1ccc(C(=O)NCc2ccccc2)cc1N=NN(C)C,> 100 µM
2,c1ccc2c3[nH]c(c2c1)=Nc1ccc(cc1)-c1nc2ccc(cc2o1)N=c1[nH]c(c2ccccc12)=Nc1ccc2nc(oc2c1)-c1ccc(cc1)N=3,> 100 µM
3,COc1cccc(CC(=O)N2CCN(CCCc3ccccc3)CC2)c1,> 100 µM
4,Cn1c(=S)c2[nH]c(SCCCc3ccccc3)nc2n(C)c1=O,> 100 µM
5,O=C1CC(=O)NC(=NN2C(=O)/C(=C/c3ccc(Cl)c(Cl)c3)N=C2c2ccccc2)N1,49.8 µM
6,CC1=NC(C)(COC(=O)C2(C)NC(C)(CO)CO2)COC1=O (stereo not given),> 100 µM
7,CC(=O)NC1C(Sc2ncn(C3OC(CO)C(O)C(O)C3NC(C)=O)n2)OC(CO)C(O)C1O (stereo not given),> 100 µM

# System: SF-268 CNS
# Experiment: DTP human tumour cell line panel, 48 h
row,Compound,TGI
1,Cc1ccc(C(=O)NCc2ccccc2)cc1N=NN(C)C,> 100 µM
2,c1ccc2c3[nH]c(c2c1)=Nc1ccc(cc1)-c1nc2ccc(cc2o1)N=c1[nH]c(c2ccccc12)=Nc1ccc2nc(oc2c1)-c1ccc(cc1)N=3,> 100 µM
3,COc1cccc(CC(=O)N2CCN(CCCc3ccccc3)CC2)c1,> 100 µM
4,Cn1c(=S)c2[nH]c(SCCCc3ccccc3)nc2n(C)c1=O,> 100 µM
5,O=C1CC(=O)NC(=NN2C(=O)/C(=C/c3ccc(Cl)c(Cl)c3)N=C2c2ccccc2)N1,> 100 µM
6,CC1=NC(C)(COC(=O)C2(C)NC(C)(CO)CO2)COC1=O (stereo not given),> 100 µM
7,CC(=O)NC1C(Sc2ncn(C3OC(CO)C(O)C(O)C3NC(C)=O)n2)OC(CO)C(O)C1O (stereo not given),> 100 µM

# System: MDA-MB-435
# Experiment: DTP human tumour cell line panel, 48 h
row,Compound,TGI
1,Cc1ccc(C(=O)NCc2ccccc2)cc1N=NN(C)C,> 100 µM
2,c1ccc2c3[nH]c(c2c1)=Nc1ccc(cc1)-c1nc2ccc(cc2o1)N=c1[nH]c(c2ccccc12)=Nc1ccc2nc(oc2c1)-c1ccc(cc1)N=3,> 100 µM
3,COc1cccc(CC(=O)N2CCN(CCCc3ccccc3)CC2)c1,> 100 µM
4,Cn1c(=S)c2[nH]c(SCCCc3ccccc3)nc2n(C)c1=O,> 100 µM
